Reference: US10272182B2, “Copolymer membrane for high-dose chemotherapy delivery during transarterial chemoembolization” (THE REGENTS OF THE UNIVERSITY OF CALIFORNIA, priority 2014, dated 2019)

Experiment: Hepatic artery IAC infusion of dox in swine without CF device
Format: in vivo
Details: 50 mg dox (2 mg/mL) into the liver via hepatic artery over 10 minutes
Method: In vivo pilot experiments on swine were performed to establish an animal model and proof-of-concept for toxicity reduction. Farm swine (n=3, 30 kg) received humane care in compliance with the UCSF IACUC. Interventional procedures included anesthesia (Isoflurane), X-ray fluoroscopy, percutaneous transarterial catheterization of the hepatic artery, and percutaneous transveous catheterization of the vena cava. Heparin was […] in order to prevent thrombus formation. Heart rate, electrocardiogram, and O2-saturation were continuously monitored during the interventions. Animals were euthanized immediately after the procedures.
In the second animal, a CF device was not deployed, but rather a hepatic artery IAC infusion of dox was performed with subsequent sampling of blood at various times and positions throughout the venous system. This was performed in order to validate a hepatic dox IAC pharmacokinetic experimental model, measuring venous dox concentrations over time via a developed liquid chromatography-mass spectroscopy assay (Pacific Biolabs, Hercules, Calif.). In this animal, a microcatheter was advanced into the hepatic artery via standard access from a right femoral artery approach using fluoroscopy and contrast as needed. Via percutaneous UV access, central catheters were positioned with tips in the suprahepatic IVC and right hepatic vein. […]

Structure (SMILES): COc1cccc2c1C(=O)c1c(O)c3c(c(O)c1C2=O)C[C@@](O)(C(=O)CO)C[C@@H]3O[C@H]1C[C@H](N)[C@H](O)[C@H](C)O1 [dox, doxorubicin]
- hemodynamic changes during the procedure: no hemodynamic changes
